IC50 data for 33 compounds are collected here from patent US7351733B2, “Tetrahydrocarbazole derivatives and their pharmaceutical use” (SmithKline Beecham Corporation, priority 2003, dated 2008).

Counter-ions that a name gives are not always drawn. Some results are limits rather than exact numbers.

One test concerns episomal HPV-16 DNA in W12-20850 cells. The test can be described thus: W-12 cellular assay (episomal HPV-16 DNA, hybrid capture). The format is cell-based, HPV16. The settings on record: Human papillomavirus 16, 96 h; W12-20850 cells, four days incubation, episomal HPV-16 DNA quantified by hybrid capture, inhibition relative to untreated control cells; read-out: W-12.
As for `Brc1ccc2[nH]c3c(c2c1)CCCC3Nc1ccccc1` (stereo not drawn) [Example 13, 6-Bromo-N-phenyl-2,3,4,9-tetrahydro-1H-carbazol-1-amine], the IC50 was found to be 10 nM. On to `Clc1ccc2[nH]c3c(c2c1)CCCC3Nc1ccccc1` (stereo not drawn) [Example 14, 6-Chloro-N-phenyl-2,3,4,9-tetrahydro-1H-carbazol-1-amine], for which the IC50 is under 10 nM.

For the compound `COc1ccc(NC2CCCc3c2[nH]c2ccc(Cl)cc32)cc1` (stereo not drawn) [Example 15, 6-Chloro-N-(4-methoxyphenyl)-2,3,4,9-tetrahydro-1H-carbazol-1-amine], the IC50 was 10 nM. Still for that read-out and setting: next, `Clc1ccc(NC2CCCc3c2[nH]c2ccc(Cl)cc32)cc1` (stereo not drawn) [Example 16, 6-Chloro-N-(4-chlorophenyl)-2,3,4,9-tetrahydro-1H-carbazol-1-amine]: 14 nM.

In the case of `Fc1ccc(NC2CCCc3c2[nH]c2ccc(Cl)cc32)cc1` (stereo not drawn) [Example 17, 6-Chloro-N-(4-fluorophenyl)-2,3,4,9-tetrahydro-1H-carbazol-1-amine], the IC50 worked out at 23 nM. Take `Cc1ccc(NC2CCCc3c2[nH]c2ccc(Cl)cc32)cc1` (stereo not drawn) [Example 18, 6-Chloro-N-(4-methylphenyl)-2,3,4,9-tetrahydro-1H-carbazol-1-amine]: the IC50 worked out at 19 nM. On the same count and under the same terms, the figure for `COc1ccc(NC2CCCc3c2[nH]c2ccc(Br)cc32)cc1` (stereo not drawn) [Example 19, 6-Bromo-N-(4-methoxyphenyl)-2,3,4,9-tetrahydro-1H-carbazol-1-amine] is under 10 nM. Take `Clc1ccc(NC2CCCc3c2[nH]c2ccc(Br)cc32)cc1` (stereo not drawn) [Example 20, 6-Bromo-N-(4-chlorophenyl)-2,3,4,9-tetrahydro-1H-carbazol-1-amine]: the IC50 is under 10 nM. For `Fc1ccc(NC2CCCc3c2[nH]c2ccc(Br)cc32)cc1` (stereo not drawn) [Example 21, 6-Bromo-N-(4-fluorophenyl)-2,3,4,9-tetrahydro-1H-carbazol-1-amine], the IC50 is under 10 nM.

Regarding `Clc1ccc2[nH]c3c(c2c1)CCCC3Nc1ncccn1` (stereo not drawn) [Example 23, 6-Chloro-N-pyrimidin-2-yl-2,3,4,9-tetrahydro-1H-carbazol-1-amine], the IC50 was 44 nM. For `COc1cc(OC)nc(NC2CCCc3c2[nH]c2ccc(Cl)cc32)n1` (stereo not drawn) [Example 24, 6-Chloro-N-(4,6-dimethoxypyrimidin-2-yl)-2,3,4,9-tetrahydro-1H-carbazol-1-amine], the IC50 amounted to 30 nM. The same measure, in the same setting: next, `Cc1ccnc(NC2CCCc3c2[nH]c2ccc(Cl)cc32)n1` (stereo not drawn) [Example 25, 6-Chloro-N-(4-methylpyrimidin-2-yl)-2,3,4,9-tetrahydro-1H-carbazol-1-amine]: 35 nM; `Cc1cc(C)nc(NC2CCCc3c2[nH]c2ccc(Cl)cc32)n1` (stereo not drawn) [Example 26, 6-Chloro-N-(4,6-dimethylpyrimidin-2-yl)-2,3,4,9-tetrahydro-1H-carbazol-1-amine]: 62 nM; `CCCc1cnc(NC2CCCc3c2[nH]c2ccc(Br)cc32)nc1` (stereo not drawn) [Example 28, 6-Bromo-N-(5-propylpyrimidin-2-yl)-2,3,4,9-tetrahydro-1H-carbazol-1-amine]: 15 nM.

For `Cc1ccc2[nH]c3c(c2c1)CCCC3Nc1ncccn1` (stereo not drawn) [Example 29, 6-Methyl-N-pyrimidin-2-yl-2,3,4,9-tetrahydro-1H-carbazol-1-amine], the IC50 was 252 nM. As to `FC(F)(F)c1cnc(NC2CCCc3c2[nH]c2ccc(Br)cc32)nc1` (stereo not drawn) [Example 33, 6-Bromo-N-[5-(trifluoromethyl)pyrimidin-2-yl]-2,3,4,9-tetrahydro-1H-carbazol-1-amine], the IC50 came to 44 nM. As for `FC(F)(F)c1ccc(NC2CCCc3c2[nH]c2ccc(Br)cc32)nc1` (stereo not drawn) [Example 34, 6-Bromo-N-[5-(trifluoromethyl)pyridin-2-yl]-2,3,4,9-tetrahydro-1H-carbazol-1-amine], the IC50 was under 10 nM. On the same count and under the same terms, next, `N#Cc1ccc(NC2CCCc3c2[nH]c2ccc(Br)cc32)nc1` (stereo not drawn) [Example 35, 6-[(6-Bromo-2,3,4,9-tetrahydro-1H-carbazol-1-yl)amino]nicotinonitrile]: 30 nM; `Brc1ccc2[nH]c3c(c2c1)CCCC3Nc1nc2ccccc2s1` (stereo not drawn) [Example 36, N-(1,3-Benzothiazol-2-yl)-6-bromo-2,3,4,9-tetrahydro-1H-carbazol-1-amine]: 72 nM; `c1cnc(NC2CCCc3c2[nH]c2ccccc32)nc1` (stereo not drawn) [Example 37, N-Pyrimidin-2-yl-2,3,4,9-tetrahydro-1H-carbazol-1-amine]: 4500 nM.

In the case of `Brc1ccc2[nH]c3c(c2c1)CCCCC3Nc1ncccn1` (stereo not drawn) [Example 38, 2-Bromo-N-pyrimidin-2-yl-5,6,7,8,9,10-hexahydrocyclohepta[b]indol-6-amine], the IC50 was under 10 nM. On to `COc1cccc(NC2CCCc3c2[nH]c2ccc(Br)cc32)c1` (stereo not drawn) [Example 45, 6-Bromo-N-(3-methoxyphenyl)-2,3,4,9-tetrahydro-1H-carbazol-1-amine], for which the IC50 is under 10 nM. Same read-out and setting: next, `Fc1cccc(NC2CCCc3c2[nH]c2ccc(Br)cc32)c1` (stereo not drawn) [Example 46, 6-Bromo-N-(3-fluorophenyl)-2,3,4,9-tetrahydro-1H-carbazol-1-amine]: under 10 nM; `Brc1ccc2[nH]c3c(c2c1)CCCC3Nc1ccc2[nH]ccc2c1` (stereo not drawn) [Example 47, 6-Bromo-N-(1H-indol-5-yl)-2,3,4,9-tetrahydro-1H-carbazol-1-amine]: 112 nM; `COc1ccccc1NC1CCCc2c1[nH]c1ccc(Br)cc21` (stereo not drawn) [Example 48, 6-Bromo-N-(2-methoxyphenyl)-2,3,4,9-tetrahydro-1H-carbazol-1-amine]: 57 nM. As for `Clc1ccccc1NC1CCCc2c1[nH]c1ccc(Br)cc21` (stereo not drawn) [Example 49, 6-Bromo-N-(2-chlorophenyl)-2,3,4,9-tetrahydro-1H-carbazol-1-amine], the IC50 is under 10 nM. On the same count and under the same terms, next, `Fc1ccccc1NC1CCCc2c1[nH]c1ccc(Br)cc21` (stereo not drawn) [Example 50, 6-Bromo-N-(2-fluorophenyl)-2,3,4,9-tetrahydro-1H-carbazol-1-amine]: 70 nM. Same read-out and setting: next, `Clc1ccc(NC2CCCc3c2[nH]c2ccc(Br)cc32)cc1Cl` (stereo not drawn) [Example 51, 6-Bromo-N-(3,4-dichlorophenyl)-2,3,4,9-tetrahydro-1H-carbazol-1-amine]: 22 nM.

The same test, now with this note: Human papillomavirus 16, W12-20850, 96 h, read-out: W-12 (nM).
As to `Brc1ccc2[nH]c3c(c2c1)CCCC3Nc1ncccn1` (stereo not drawn) [Example 22, 6-Bromo-N-pyrimidin-2-yl-2,3,4,9-tetrahydro-1H-carbazol-1-amine hydrochloride], the IC50 amounted to 97 nM.

Turning to `Brc1ccc2[nH]c3c(c2c1)CCCC3Nc1ccccn1` (stereo not drawn) [Example 27, 6-Bromo-N-pyridin-2-yl-2,3,4,9-tetrahydro-1H-carbazol-1-amine hydrochloride], the IC50 is 37 nM. The same measure, in the same setting: next, `COc1cc(OC)nc(NC2CCCc3c2[nH]c2ccc(C)cc32)n1` (stereo not drawn) [Example 31, N-(4,6-Dimethoxypyrimidin-2-yl)-6-methyl-2,3,4,9-tetrahydro-1H-carbazol-1-amine hydrochloride]: 70 nM.

`Cc1cc(C)nc(NC2CCCc3c2[nH]c2ccc(Br)cc32)n1` (stereo not drawn) [Example 32, 6-Bromo-N-(4,6-dimethylpyrimidin-2-yl)-2,3,4,9-tetrahydro-1H-carbazol-1-amine hydrochloride]: the IC50 came out at 12 nM. Still for that read-out and setting: the figure for `FC(F)(F)c1ccc2[nH]c3c(c2c1)CCCC3Nc1ccccc1` (stereo not drawn) [Example 43, N-Phenyl-6-(trifluoromethyl)-2,3,4,9-tetrahydro-1H-carbazol-1-amine hydrochloride] is 51 nM.
